These results are taken from paper PMC6680510, “Benzotriazine Di-Oxide Prodrugs for Exploiting Hypoxia and Low Extracellular pH in Tumors” (Molecules, 2019).

One data set deals with UT-SCC-74B cells. Briefly: IC50 assay (inhibition of proliferation, 4 h exposure, SRB). Conditions: for IC50: Homo sapiens, 4 h; for IC50 / PCR Anoxic (IC50 at pHe 7.4/IC50 at pHe 6.5) / PCR oxic (IC50 at pHe 7.4/IC50 at pHe 6.5): UT-SCC-74B. The format is cell-based. The method, then:
(§1) Cells were seeded in 96-well plates (SiHa or FaDu 1500 cells/well, UT-SCC-74B 800 cells/well) in 100 μL. After incubation for 2 h, the drugs were added in 50 μL of the same titrated medium at 3× the final concentration to duplicate the wells. After a further 4 h the plates were checked for drug precipitation using a phase contrast microscope, then drugs were removed by aspirating and washing with the standard (pH 7.4) medium, then aspirating again and adding 150 μL of the medium. Cultures were then grown for 5 days before staining with sulphorhodamine B and measuring absorbance, with the estimation of IC50 values using 4-parameter logistic regression, as previously carried out.
The medium and plasticware was equilibrated in the chamber for 3 days prior to use. In the anoxia experiments, FaDu cells were plated in poly-L-lysine coated plates (Corning Cat # 356461) to improve attachment. […]
Footnotes: a Number of experiments. b Anoxic cytotoxicity ratio = oxic IC50/anoxic IC50. c pH
cytotoxicity ratio = IC50 at pHe 7.4/ IC50 at pHe 6.5. d Overall ratio = oxic IC50 pHe 7.4 / anoxic IC50 pHe
6.5. Values are means and errors are SEM. For ratios, the errors are root mean square SEM. […]

Data set [1] has as its system SiHa cells. The data set is described as follows: IC50 assay modified for chronic hypoxia (oxia, hypoxia, anoxia). The data set is classed as cell-based. Conditions: for IC50: Homo sapiens. Here is the method: There are relatively few viable cells in tumors at O2 concentrations as low as in the above anoxic experiments. In addition, extensive changes in gene expression occur under chronic exposure to intermediate O2 concentrations (chronic hypoxia), including the expression of proteins that regulate pHi. […] Therefore, oxic and anoxic exposures were also tested in these same experiments. The 24 h adaptation to hypoxia had little effect on the subsequent growth of the cultures at either pHe value (Figure S6).
To minimize problems with poor cell attachment under chronic hypoxia, the drugs were added from a 3-fold dilution series made in a separate plate, rather than by serial dilution in the plates containing the cells. In addition, the drugs were removed after the 4 h exposure by centrifuging the plates (200g × 5 min) prior to each aspiration. The same modifications were used for the oxic drug exposures in these experiments.

In data set [2] the test system is SiHa cells. The data set is described as follows: IC50 assay (inhibition of proliferation, 4 h exposure, SRB). Conditions: Homo sapiens, SiHa, 4 h. Here is the method:
as §1
The medium and plasticware was equilibrated in the chamber for 3 days prior to use. In the anoxia experiments, FaDu cells were plated in poly-L-lysine coated plates (Corning Cat # 356461) to improve attachment.
Cells were subsequently grown under standard cell culture conditions (oxia, pHe 7.4) for 5 days before staining with sulforhodamine B (SRB). […] (B) SN30000 (2). (C) BTO acid 4a. Values are means and errors are ranges for duplicate cultures in a single experiment. Fitted curves are 4-parameter logistic regressions. PCR = pH cytotoxicity ratio. ACR = anoxia cytotoxicity ratio. TMR = tumor microenvironment ratio.

A further data set relates to FaDu cells. Described as above. The data set is classed as cell-based. To be noted: Homo sapiens, 4 h.
Data set [3] is described as follows: Solubility in AlphaMEM + 5% FBS, pH 7.4. Conditions: culture medium (AlphaMEM + 5% FBS), pH 7.4, plasma or biological fluid, kinetic from dmso stock.

Values joined by “and” are separate entries in the source; they are usually repeats but may differ in a detail not shown here. Equal entries are not always repeated. Where two headings read alike, the source gives them in different places.

Consider `Cc1ccc2c(c1)[n+]([O-])nc(NCCCC(=O)O)[n+]2[O-]` (hydrate or solvate) [Compound 12a, 3-((3-Carboxypropyl)amino)-7-methylbenzo[e][1,2,4]triazine 1,4-Dioxide], for which the melting point fell in the range of 185 to 188 °C.

Consider `O=C(O)CCCc1ccc(N(CCCl)CCCl)cc1` [Compound 1, chlorambucil], for which, in the data set with UT-SCC-74B cells, the “ACR (oxic IC50/anoxic IC50)” value was 1.26 ± 0.20 and 0.94 ±0.21. Besides, the IC50 in the data set with UT-SCC-74B cells (pHe 6.5, 4 h, 20% O2, read-out: Oxic IC50) was 0.8 ± 0.17 µM; in the data set with UT-SCC-74B cells (pHe 6.5, 4 h, <0.01% O2, read-out: Anoxic IC50) it was 0.85 ± 0.06 µM; in the data set on UT-SCC-74B cells (pHe 7.4, 4 h, 20% O2, read-out: Oxic IC50), 6.34 ± 0.88 µM; in the data set on UT-SCC-74B cells (pHe 7.4, 4 h, <0.01% O2, read-out: Anoxic IC50), 5.05 ± 0.38 µM; in the data set with SiHa cells [1] (0.2% O2 (24 h before and during 4 h exposure), pHe 6.5), 1.75 ± 0.44 µM; in the data set with SiHa cells [1] (0.2% O2 (24 h before and during 4 h exposure), pHe 7.4) it was 17.3 ± 2.53 µM. Further, the IC50 turned out to be 1.84 ± 0.48 µM with SiHa cells [1] (4 h, 20% O2, pHe 6.5, 4 h); 12 ± 2 µM with SiHa cells [1] (4 h, 20% O2, pHe 7.4, 4 h); 1.49 ± 0.18 µM in the data set on SiHa cells [1] (4 h, <0.01% O2, pHe 6.5, 4 h); 11 ± 2.1 µM in the data set on SiHa cells [1] (4 h, <0.01% O2, pHe 7.4, 4 h); 3.78 ± 1.51 µM in the data set on SiHa cells [2] (read-out: Anoxic IC50, SiHa, pHe 6.5, 4 h, anoxic); 13.6 ± 1.1 µM in the data set with SiHa cells [2] (read-out: Anoxic IC50, SiHa, pHe 7.4, 4 h, anoxic). Moreover, the concentration for half-maximal inhibition (IC50) in the data set on SiHa cells [2] (read-out: Oxic IC50, SiHa, pHe 6.5, 4 h, oxic) was found to be 1.58 ± 0.27 µM; in the data set with SiHa cells [2] (read-out: Oxic IC50, SiHa, pHe 7.4, 4 h, oxic), 12.7 ± 1.2 µM; in the data set with FaDu cells (pHe 6.5, 4 h, anoxic, read-out: Anoxic IC50) it was 2.26 ± 0.37 µM; in the data set with FaDu cells (pHe 6.5, 4 h, oxic, read-out: Oxic IC50) it was 3.19 ± 0.78 µM; in the data set on FaDu cells (pHe 7.4, 4 h, anoxic, read-out: Anoxic IC50), 13.1 ± 8.7 µM; with FaDu cells (pHe 7.4, 4 h, oxic, read-out: Oxic IC50) it was 15 ± 1.6 µM. For the same compound, the “PCR Anoxic (IC50 at pHe 7.4/IC50 at pHe 6.5)” value came out at 5.9 in the data set with UT-SCC-74B cells (listed as CHL) and 5.94 ± 0.61 in the data set on UT-SCC-74B cells (listed as CHL (1)). Moreover, the “PCR oxic (IC50 at pHe 7.4/IC50 at pHe 6.5)” value with UT-SCC-74B cells (listed as CHL) is listed as 7.9; in the data set with UT-SCC-74B cells (listed as CHL (1)), 7.93 ± 2.01. In addition, the “PCR (IC50 for pHe 7.4/IC50 for pHe 6.5)” value in the data set on SiHa cells [1] (0.2% O2) is recorded as 9.9 ± 2.8; in the data set on SiHa cells [1] (20% O2) it was 6.5 ± 2.0; in the data set on SiHa cells [1] (<0.01% O2), 7.40 ± 1.64. The figures for the “ACR (IC50 for 20% O2/IC50 for <0.01% O2)” value with SiHa cells [1] (pHe 6.5) and with SiHa cells [1] (pHe 7.4) were 1.23 ± 0.34 and 1.09 ± 0.27, respectively. The “HCR (IC50 for 20% O2/IC50 for 0.2% O2)” value stood at 1.05 ± 0.38 with SiHa cells [1] (pHe 6.5) and 0.69 ± 0.15 with SiHa cells [1] (pHe 7.4).

In turn, `COC(=O)CCc1n[n+]([O-])c2cc(C)ccc2[n+]1[O-]` [Compound 5b, 3-(3-Methoxy-3-oxopropyl)-7-methylbenzo[e][1,2,4]triazine 1,4-Dioxide] showed a melting point of 165 to 167 °C. The solubility in data set [3] was above 950 µM.
